One data set has as its target JAK1 (Homo sapiens (Human), UniProt P23458). Put plainly: LanthaScreen JAK biochemical assay (JAK1). (In general: In TR-FRET formats the signal depends on donor and acceptor labels being close together.)
The next data set addresses JAK2 (Homo sapiens (Human), UniProt O60674). Put plainly: LanthaScreen JAK biochemical assay (JAK2).
A further data set is described as follows: in vivo. Conditions: Sprague Dawley, rat, po, 5 mg/kg. Also noted: species or system Sprague Dawley rats. On the procedure:
Assay 5: Colon Pharmacokinetics in Rats
Test compounds were individually formulated in 0.5% methyl-cellulose in water and dosed via oral gavage at 5 mg/kg to Sprague Dawley rats. At various time points (typically 1, 2, 4, 6, 24 hr) post dosing, blood samples were removed via cardiac puncture and intact colons were excised from the rats. Blood samples were centrifuged at 1500×g for 15 min to collect plasma. Colons were washed with ice cold phosphate buffered saline (PBS), weighed, and homogenized at a dilution of 1:10 in PBS. Plasma and colon levels of test compound were determined by LC-MS analysis against analytical standards constructed into a standard curve in the test matrix. A colon to plasma ratio was determined as the ratio of the colon AUC to the plasma AUC in μg hr/g.

The test system of data set [1] is oxazolone-induced colitis. The data set is described as follows: Mouse model of oxazolone-induced colitis. The class given is in vivo, BALB/C mice. The following applies: mouse, PO, 1, 3, and/or 10 mg/kg BID. The method, then:
Assay 7: Mouse Model of Oxazalone-Induced Colitis
Oxazolone-induced colitis is an experimental model that has a histological resemblance to human ulcerative colitis (Heller et al. Immunology, 2002, 17, 629-638). Adult BALB/C mice from Harlan were used in the assay. On day 1, animals were lightly anesthetized with isoflurane and the hairs between the shoulder were carefully removed before oxazolone (4%, 150 μL, 4:1 acetone:olive oil formulation) or vehicle solution was slowly applied for skin sensitization. Seven days after skin sensitization, the mice were fasted overnight, anesthetized with isoflurane inhalation, and a 1 mL syringe equipped with a 3.5-F catheter, filled with oxazolone solution, was inserted carefully about 4 cm into the colon of the mouse. Following insertion, 50 μL of the oxazolone solution (1%, 1:1 ethanol:water formulation) was injected very slowly (over 30 sec using an injection pump) into the colon. The catheter was removed and the mice were held vertically (head down) for 2 min to ensure that the entire oxazolone solution remained inside the colon. Drug treatment (PO, BID or TID) or vehicle was initiated a day prior to the oxazolone intrarectal (IR) challenge. Two-day post oxazolone intrarectal challenge, the Disease Activity Index (DAI) was assessed by treatment-blinded experimenters for each mouse according to the criteria score: stool consistency score (0, normal; 2, loose; 4, diarrhea), gross bleeding score (0, absence; 2, blood tinged; 4, presence), and weight loss score (0, none; 1, 1%-5%; 2, 5%-10%; 3, 10%-20%; 4, more than 20%); DAI=average of (stool consistency score+gross bleeding score+weight loss score).
Selected compounds of the invention were tested in the assay. Efficacy in the model is evidenced by a decrease in DAI score as compared with the score from vehicle treated animals.

The test system of data set [2] is IL-4 induced STAT6 phosphorylation in THP-1 human monocytic cells. The data set is described as follows: Cellular JAK potency assay, THP-1. The following applies: for IC50: Homo sapiens, THP-1, read-out: THP-1 IL4 pIC50 (converted); for THP-1 IL4 pIC50: IL-4 induced STAT6 phosphorylation, THP-1 cells.
The test system of data set [3] is IL-13 induced STAT6 phosphorylation in BEAS-2B human lung epithelial cells. The data set is described as follows: AlphaScreen cellular JAK potency assay, BEAS-2B. Conditions: for IC50: Homo sapiens, BEAS-2B, read-out: BEAS2B pIC50 (converted); for BEAS2B pIC50: IL-13 induced STAT6 phosphorylation, BEAS-2B cells.
Another data set addresses JAK3 (Homo sapiens (Human), UniProt P52333). The data set is described as follows: LanthaScreen JAK biochemical assay (JAK3).
For the next data set, the target named is Tyk2 (Homo sapiens (Human), UniProt P29597). Put plainly: LanthaScreen JAK biochemical assay (Tyk2).
Chain of Tyk2 (P29597 whole entry): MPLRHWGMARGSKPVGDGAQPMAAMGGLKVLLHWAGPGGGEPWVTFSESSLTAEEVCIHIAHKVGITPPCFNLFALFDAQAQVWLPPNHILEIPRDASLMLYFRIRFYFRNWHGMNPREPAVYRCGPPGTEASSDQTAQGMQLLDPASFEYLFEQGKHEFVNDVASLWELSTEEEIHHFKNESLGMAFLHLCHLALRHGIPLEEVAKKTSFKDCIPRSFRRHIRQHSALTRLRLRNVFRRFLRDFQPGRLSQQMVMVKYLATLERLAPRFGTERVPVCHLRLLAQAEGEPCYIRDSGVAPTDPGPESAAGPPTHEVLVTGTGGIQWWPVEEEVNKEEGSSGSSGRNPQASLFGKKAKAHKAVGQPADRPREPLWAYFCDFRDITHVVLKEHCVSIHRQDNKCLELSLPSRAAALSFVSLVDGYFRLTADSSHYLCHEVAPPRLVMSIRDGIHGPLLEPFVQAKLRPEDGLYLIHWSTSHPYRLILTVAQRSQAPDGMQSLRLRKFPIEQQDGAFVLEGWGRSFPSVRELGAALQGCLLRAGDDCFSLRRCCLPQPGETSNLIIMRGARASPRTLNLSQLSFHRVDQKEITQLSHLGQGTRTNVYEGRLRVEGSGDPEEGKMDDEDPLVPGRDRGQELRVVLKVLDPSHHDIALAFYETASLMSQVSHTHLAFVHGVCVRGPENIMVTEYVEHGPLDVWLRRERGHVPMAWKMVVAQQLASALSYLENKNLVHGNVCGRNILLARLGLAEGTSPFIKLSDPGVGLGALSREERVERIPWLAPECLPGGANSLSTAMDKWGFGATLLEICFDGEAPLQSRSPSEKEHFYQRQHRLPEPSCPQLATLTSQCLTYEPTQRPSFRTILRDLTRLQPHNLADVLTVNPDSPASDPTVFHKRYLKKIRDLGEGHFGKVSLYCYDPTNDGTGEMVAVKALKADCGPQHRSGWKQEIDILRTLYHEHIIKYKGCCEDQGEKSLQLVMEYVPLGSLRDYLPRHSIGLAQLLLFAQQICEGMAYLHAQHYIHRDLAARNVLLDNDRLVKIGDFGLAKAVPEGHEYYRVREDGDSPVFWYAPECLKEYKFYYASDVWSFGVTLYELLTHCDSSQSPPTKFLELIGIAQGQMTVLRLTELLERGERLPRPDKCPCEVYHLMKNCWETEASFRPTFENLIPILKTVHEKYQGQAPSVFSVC
A short description of data set [4]: Determination of absorption in cannulated rats. Format: in vivo. Conditions: Sprague Dawley rats, oral vs IV; for bioavailability: rat, plasma (jugular vein), jugular vein, read-out: oral bioavailability (F %). The method, then: Drug levels were determined using an LC-MS-MS method. The resulting drug levels were used to compute the IV pharmacokinetic parameters: AUC IV and Dose IV. (2) Rats that have been cannulated in their portal vein (PV) and also in their jugular vein (JV) were dosed orally with test compound. Following oral dosing, plasma samples were typically collected from 0-6 hr from both the portal vein and the jugular vein. Drug levels were determined using an LC-MS-MS method. The resulting drug levels were used to compute the following pharmacokinetic parameters: AUC PO PV, AUC PO JV, and Dose PO. Using data derived from the above studies, the oral bioavailability F %, and the quantities Fa% and Fh% were calculated from the following formulas: F %=(AUC PO JV/AUC IV)*(Dose IV/Dose PO)*100 Fa%=(AUC PO PV/AUC IV)*(Dose IV/Dose PO)*100 Fh%=AUC PO JV/AUC PO PV where: AUC PO JV=Area under the curve following oral dose and plasma collected from the jugular vein AUC PO PV=Area under the curve following oral dose and plasma collected from the portal vein AUC IV=Area under the curve following an intravenous dose Dose IV=Intravenous Dose in mg/kg Dose PO=Oral Dose in mg/kg

Another data set relates to mouse splenic NK cells. Put plainly: Immunosuppression effects in mouse splenic natural killer (NK) cells. The following applies: PO BID three days. The class given is in vivo, Balb/C mice. The method, then:
Adult male Balb/C mice (12-14 weeks of age) from Harlan were used for the study. […] Spleens were harvested 1 or 2 h post last dose and crushed immediately for cell subtype staining. Prior to fixation, fluorophore-labelled antibodies for CD19 (FITC; B cells), CD3e (PE; pan T cells) and DX5 (APC; NK cells) were incubated with splenocyte samples from each animal to allow for simultaneous, multiple subtype % analysis on the flow cytometer. The number of total spleen cells for each animal was measured by Scepter™ 2.0 Handheld Automated Cell Counter. The absolute number of lymphocyte subtype population (e.g., splenic B, T and NK cells) was calculated from the percentage of each subtype times total spleen cells for each animal. A one way ANOVA, with Dunnett's post hoc test, was used to compare the splenic lymphocytes number of the vehicle and test compound groups. The a level was set at p<0.05. Data were presented as the mean±SEM for each group.

Like-named read-outs stand apart in the source and are kept apart here.

As usually defined, the bioavailability is the share of a dose that reaches the circulation, judged against a reference dose that is usually intravenous.

Chain of JAK2 (O60674 whole entry): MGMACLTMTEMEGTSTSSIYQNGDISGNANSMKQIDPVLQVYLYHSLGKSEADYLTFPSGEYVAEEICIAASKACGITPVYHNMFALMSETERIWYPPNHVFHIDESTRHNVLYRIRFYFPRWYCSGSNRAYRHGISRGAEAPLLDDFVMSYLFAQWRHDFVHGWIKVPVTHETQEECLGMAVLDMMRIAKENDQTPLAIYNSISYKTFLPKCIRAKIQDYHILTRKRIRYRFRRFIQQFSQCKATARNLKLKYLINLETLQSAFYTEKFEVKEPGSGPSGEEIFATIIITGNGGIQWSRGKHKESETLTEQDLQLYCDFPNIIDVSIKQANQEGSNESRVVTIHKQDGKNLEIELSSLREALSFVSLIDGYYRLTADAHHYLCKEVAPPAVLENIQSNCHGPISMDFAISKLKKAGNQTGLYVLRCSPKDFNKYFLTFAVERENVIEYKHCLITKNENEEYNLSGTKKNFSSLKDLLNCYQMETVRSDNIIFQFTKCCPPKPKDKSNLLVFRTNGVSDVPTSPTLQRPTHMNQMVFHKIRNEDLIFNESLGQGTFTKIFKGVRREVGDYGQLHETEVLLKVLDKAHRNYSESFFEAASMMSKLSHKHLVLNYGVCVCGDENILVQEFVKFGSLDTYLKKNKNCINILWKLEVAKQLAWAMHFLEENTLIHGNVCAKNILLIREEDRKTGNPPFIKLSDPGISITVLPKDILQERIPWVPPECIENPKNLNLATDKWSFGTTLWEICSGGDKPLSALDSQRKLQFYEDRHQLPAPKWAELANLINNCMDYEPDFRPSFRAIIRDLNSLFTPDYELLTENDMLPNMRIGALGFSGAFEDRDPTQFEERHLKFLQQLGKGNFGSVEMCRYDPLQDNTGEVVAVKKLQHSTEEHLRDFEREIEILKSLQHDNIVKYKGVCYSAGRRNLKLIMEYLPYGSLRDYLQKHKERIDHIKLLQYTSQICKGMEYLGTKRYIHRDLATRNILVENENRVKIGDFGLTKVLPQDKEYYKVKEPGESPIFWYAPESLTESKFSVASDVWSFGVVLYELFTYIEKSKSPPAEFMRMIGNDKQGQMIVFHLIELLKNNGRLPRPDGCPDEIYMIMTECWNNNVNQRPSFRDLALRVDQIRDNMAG
Chain of JAK1 (P23458 whole entry): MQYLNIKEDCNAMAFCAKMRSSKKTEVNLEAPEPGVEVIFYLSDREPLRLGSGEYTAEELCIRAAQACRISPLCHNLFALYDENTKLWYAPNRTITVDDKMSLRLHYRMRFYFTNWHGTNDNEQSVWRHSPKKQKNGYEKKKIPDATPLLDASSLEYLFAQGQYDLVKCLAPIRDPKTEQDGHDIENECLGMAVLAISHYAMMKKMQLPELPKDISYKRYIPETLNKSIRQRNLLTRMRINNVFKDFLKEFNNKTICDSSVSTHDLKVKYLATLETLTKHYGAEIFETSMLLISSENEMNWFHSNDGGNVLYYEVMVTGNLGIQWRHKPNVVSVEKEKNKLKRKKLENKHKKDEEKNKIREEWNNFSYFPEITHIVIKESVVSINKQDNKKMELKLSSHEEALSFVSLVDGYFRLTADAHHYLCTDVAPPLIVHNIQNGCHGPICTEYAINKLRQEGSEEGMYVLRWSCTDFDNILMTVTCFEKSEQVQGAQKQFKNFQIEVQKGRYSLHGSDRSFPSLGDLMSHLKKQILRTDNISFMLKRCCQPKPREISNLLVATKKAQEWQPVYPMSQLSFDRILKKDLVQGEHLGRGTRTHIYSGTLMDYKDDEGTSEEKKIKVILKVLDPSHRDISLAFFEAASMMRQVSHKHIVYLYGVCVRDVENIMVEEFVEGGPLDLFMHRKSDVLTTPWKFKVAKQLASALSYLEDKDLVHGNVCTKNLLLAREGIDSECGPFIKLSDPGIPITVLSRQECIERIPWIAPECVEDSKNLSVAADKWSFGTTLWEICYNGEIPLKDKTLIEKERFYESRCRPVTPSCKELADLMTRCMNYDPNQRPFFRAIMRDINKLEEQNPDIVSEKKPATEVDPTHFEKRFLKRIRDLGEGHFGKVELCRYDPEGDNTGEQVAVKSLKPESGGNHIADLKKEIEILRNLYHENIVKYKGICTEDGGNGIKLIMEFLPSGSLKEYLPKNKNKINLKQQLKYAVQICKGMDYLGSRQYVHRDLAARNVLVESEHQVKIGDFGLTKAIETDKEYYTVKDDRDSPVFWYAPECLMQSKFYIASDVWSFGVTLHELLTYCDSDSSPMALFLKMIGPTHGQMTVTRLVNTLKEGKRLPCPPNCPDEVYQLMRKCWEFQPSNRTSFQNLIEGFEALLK

As for `Cc1cc(Nc2cc3ncccc3c(N[C@@H]3C[C@H]4CC[C@@H](C3)N4CCF)n2)n[nH]1` [Example 2, N^5-((1R,3s,5S)-8-(2-fluoroethyl)-8-azabicyclo[3.2.1]octan-3-yl)-N^7-(5-methyl-1H-pyrazol-3-yl)-1,6-naphthyridine-5,7-diamine], the Ki on JAK1 (read-out: JAK 1 (pKi) (converted)) and at JAK2 was 0.1 to 1 nM throughout. Also, the Kp in the data set “in vivo” is > 450. Besides, in data set [1], the “decrease in DAI score as compared with vehicle treated animals” value (from here on “decrease in DAI score”) is “statistically significant decrease”. Also, the IC50 in data set [2] and in [3] was 31.6 to 200 nM each time.
With `Cc1cc(Nc2cc3ncccc3c(N[C@@H]3C[C@H]4CCC[C@@H](C3)N4C(=O)C(C)(C)CO)n2)n[nH]1` [Example 2-22], at JAK1, the “JAK 1 (pKi)” value was “B (B represents a pKi value between 9 and 10 (Ki between 1 nM and 0.1 nM))”. Besides, at JAK2, the “JAK 2 (pKi)” value is “B (B represents a pKi value between 9 and 10 (Ki between 1 nM and 0.1 nM))”. For the same compound, the “JAK 3 (pKi)” value at JAK3 was “C (C represents a pKi value between 7 and 9 (Ki between 100 nM and 1 nM))”. Moreover, the “Tyk 2 (pKi)” value at Tyk2 is “B (B represents a pKi value between 9 and 10 (Ki between 1 nM and 0.1 nM))”. Moreover, the “decrease in DAI score” value in data set [1] is reported as “did not exhibit a statistically significant decrease”. Moreover, the “THP-1 IL4 pIC50” value in [2] is “B (B represents a pEC50 value between 6.7 and 7.5 (EC50 between 200 nM and 32 nM))”. In [3], the “BEAS2B pIC50” value is listed as “A (A represents a pEC50 value≥7.5 (EC50≤32 nM))”.
`Cc1cc(Nc2cc3ncccc3c(N[C@@H]3C[C@H]4CC[C@@H](C3)N4S(=O)(=O)CC(C)C)n2)n[nH]1` [Example 4-3]: the “JAK 1 (pKi)” value on JAK1 was “B (B represents a pKi value between 9 and 10 (Ki between 1 nM and 0.1 nM))”. In addition, the “JAK 2 (pKi)” value at JAK2 was “B (B represents a pKi value between 9 and 10 (Ki between 1 nM and 0.1 nM))”. Further, the “JAK 3 (pKi)” value on JAK3 is “C (C represents a pKi value between 7 and 9 (Ki between 100 nM and 1 nM))”. Further, the “Tyk 2 (pKi)” value at Tyk2 is “B (B represents a pKi value between 9 and 10 (Ki between 1 nM and 0.1 nM))”. For the same compound, the “decrease in DAI score” value in data set [1] is “did not exhibit a statistically significant decrease”. For the same compound, in data set [2], the “THP-1 IL4 pIC50” value was “A (A represents a pEC50 value≥7.5 (EC50≤32 nM))”. In [3], the “BEAS2B pIC50” value is “A (A represents a pEC50 value≥7.5 (EC50≤32 nM))”.
Turning to `Cc1cc(Nc2cc3ncccc3c(N[C@@H]3C[C@H]4CC[C@@H](C3)N4C(=O)C(F)F)n2)n[nH]1` [Example 5, 2,2-difluoro-1-((1R,3s,5S)-3-((7-((5-methyl-1H-pyrazol-3-yl)amino)-1,6-naphthyridin-5-yl)amino)-8-azabicyclo[3.2.1]octan-8-yl)ethan-1-one], the Kp in “in vivo” was > 450. Also, the “decrease in DAI score” value in [1] is reported as “statistically significant decrease”.
In the case of `Cc1cc(Nc2cc3ncccc3c(N[C@@H]3C[C@H]4CCC[C@@H](C3)N4S(=O)(=O)c3cccnc3)n2)n[nH]1` [Example 8, N^7-(5-methyl-1H-pyrazol-3-yl)-N^5-((1R,3s,5S)-9-(pyridin-3-ylsulfonyl)-9-azabicyclo[3.3.1]nonan-3-yl)-1,6-naphthyridine-5,7-diamine], in [4], the “absorption at the portal vein (Fa%)” value is “less than 10%” and the bioavailability is < 5%. In addition, the “decrease in DAI score” value in [1] was “statistically significant decrease”. Moreover, the IC50 in data set [2] was < 31.6 nM. In addition, the IC50 in [3] was < 31.6 nM.
With `Cc1cc(Nc2cc3nc(CO)ccc3c(N[C@@H]3C[C@H]4CC[C@@H](C3)N4C(=O)OCC(C)C)n2)n[nH]1` [Example 12, Isobutyl(1R,3s,5S)-3-((2-(hydroxymethyl)-7-((5-methyl-1H-pyrazol-3-yl)amino)-1,6-naphthyridin-5-yl)amino)-8-azabicyclo[3.2.1]octane-8-carboxylate], the Ki at JAK1 and on JAK2 (read-out: JAK 2 (pKi) (converted)) was 0.1 to 1 nM throughout. Moreover, the “absorption at the portal vein (Fa%)” value in data set [4] is on record as “less than 10%”. Besides, the bioavailability in [4] was < 5%. Moreover, in data set [1], the “decrease in DAI score” value is on record as “statistically significant decrease”. Further, the IC50 in data set [2] and in [3] was 31.6 to 200 nM in each case.
On to `C[C@@H]1CCN(C(=O)CC#N)C[C@@H]1N(C)c1ncnc2[nH]ccc12` [tofacitinib], for which, in the data set with mouse splenic NK cells (mouse spleen), the “treatment effect on B and T cell populations” value is recorded as “No treatment effect”. In addition, the “splenic NK cell counts” value in the data set with mouse splenic NK cells (mouse, tofacitinib 30 mg/kg, Example 1 up to 100 mg/kg) is given as “significantly decreased”.
